# Conditions: buffer; pH 7.4; 200.0 µM
row,SMILES,solubility kinetic [µg/mL]
1,CC1(C)Cc2ccccc2-c2nc3n(c(=O)c21)CCCS3,0.9
2,Cc1ccc(CNC(=O)COC(=O)c2cnc(C)cn2)cc1,> 44.9
3,CN1CCC(N(C)C(=O)c2ccc(Cl)c(S(=O)(=O)N3CCc4ccccc43)c2)CC1,> 67.2
4,CC(=O)c1c(-c2ccccc2)c2ccccc2[nH]c1=O,15.1
5,C/C(=N/O)c1no[n+]([O-])c1/C(C)=N\O,> 30
6,Cc1cc(C)nc(SCC(=O)Nc2nonc2N)n1,> 42
7,CCc1cccc(CC)c1NC(=O)CNCc1cccs1,18.7
8,COP(=O)(Cc1ccc(C#N)o1)OC,> 32.3
9,COC(=O)Cn1ncc(N(C)Cc2ccccc2)c(Cl)c1=O,> 48.3
10,CNC(=O)N1CCC(C(=O)c2c(C)c(C)c(C)c(C)c2C)CC1,36.5
11,Cc1ccc(-n2nc3c(c2NC(=O)C(C)C)CS(=O)(=O)C3)c(C)c1,> 52.1
12,CCc1ccc(NC(=O)N2CCCCCC2)cc1,31.9
13,Cc1nc(SCCOc2ccccc2F)[nH]c(=O)c1Cc1ccccc1,0.6
14,O=C(Nc1cccc2ncccc12)c1ccccc1Cl,18.5
15,COc1ccc(NC(=O)C(=O)Nc2cccc3ccccc23)c(OC)c1,< 0.4
16,O=C(Nc1ccncc1)c1sc2ccccc2c1Cl,0.8
17,COc1ccc(C(=O)CCC(=O)Nc2cccc(Cl)c2)cc1,3.4
18,O=C([O-])c1cc(-c2cccnc2)nc2ccccc12.[K+],8.7
19,COC(=O)Cn1ccc(-c2ccc(Cl)cc2)c(C#N)c1=O,> 45.4
20,CCCOc1cccc(C(=O)NCCNC(=O)c2ccc(C)nc2)c1,> 51.2
21,O=C(NC1CCS(=O)(=O)C1)c1sc2ccccc2c1Cl (stereo not drawn),12.2
22,CCC1(c2ccc(F)cc2)NC(=O)N(CC(=O)NC2CCCC(C)C2C)C1=O (stereo not drawn),13.2
23,COc1ccc(CNC(=O)N[C@H](C(=O)O)C(C)C)cc1OC,> 46.6
24,O=S(=O)(c1ccc(-c2ccccc2)cc1)N1CCCC1,3

row,SMILES,solubility kinetic [µg/mL]
1,COc1c(C)cc(C(=O)C2CCCN(C3CCOCC3)C2)cc1C (stereo not drawn),> 49.7
2,COc1ccc(S(=O)(=O)NCc2ccccn2)c(C)c1C,32.8
3,O=C(CSc1nccn1-c1cccc(F)c1)NC1CCCC1,> 47.9
4,Cc1cccc(C)c1NC(=O)C(=O)c1cn(C)c2ccccc12,< 0.3
5,Cc1cccc(NS(=O)(=O)c2ccc3c(c2)oc(=O)n3C)c1C,1.5
6,COC(=O)c1ccc(OC(=O)c2cnccn2)cc1,> 38.7
7,Cc1cc(C)cc(NC2=C(N)C(=O)c3ccccc3C2=O)c1,0.4
8,O=C(NCCCn1ccnc1)c1ccc(-c2cccc(Cl)c2Cl)o1,48.1
9,C=C(Br)Cn1cnc2ccccc21,> 35.6
10,COc1ccc(NC(=O)Nc2cccc3ccccc23)c(OC)c1,0.5
11,CCOC(=O)C1CCCN(C(=O)c2cc3cc(F)ccc3[nH]2)C1 (stereo not drawn),23.9
12,Cc1nc(NC(=S)NC(=O)c2ccccc2)sc1C,0.3
13,Cc1ccc(C#N)c(SCCN2CCCCC2)n1,32.4
14,Cc1cc(C)c2c(CN3CC(C)OC(C)C3)cc(=O)oc2c1C (stereo not drawn),13.6
15,CC(C)C(=O)N1CCN(c2nc3ccc(Cl)cc3s2)CC1,> 48.6
16,O=C(/C=C/c1cccs1)NC1CCCC1,> 33.2
17,Cc1noc(C)c1CSc1ccccc1C(=O)OC(C)C(N)=O (stereo not drawn),11.5
18,O=C(c1cc(Br)c[nH]1)N1CCCCC1,> 38.6
19,Cc1ccc(OCC(O)CNCc2ccccc2)cc1C (stereo not drawn),36.2
20,C1CN(c2nc(N3CCOCC3)nc(N3CCOCC3)n2)CCO1,20.6
21,CC(=O)c1c(C)[nH]c(C(=O)N2CCN(c3ccccn3)CC2)c1C,42.4
22,Cc1cc(C)c2c3c(sc2n1)C(=O)N(c1ccccc1C)CC(=O)N3,25.5
23,CC1CCN(C(=O)CCN2C(=O)C3C4C=CC(C4)C3C2=O)CC1 (stereo not drawn),> 47.5
24,Cc1ccc(C)c(S(=O)(=O)NC2CCSC2=O)c1 (stereo not drawn),> 42.8

row,SMILES,solubility kinetic [µg/mL]
1,O=C(NCCNC1CCC(c2ccccc2)CC1)c1ccc(F)cc1 (stereo not drawn),35.4
2,Cc1ccc(S(=O)(=O)CCSc2ccc(C(F)(F)F)cn2)cc1,< 0.8
3,CN(C)C(=O)CCCCCCCCC(=O)N(C)C,> 38.5
4,Cc1ccc(-n2c(C)cc(/C=C3\SC(=O)NC3=O)c2C)cc1,< 0.3
5,CCOC(=O)c1c(C)nc2cc(C)cc(C)n12,32.4
6,O=C(O)CCC(=O)NCc1c(Cl)cccc1Sc1ccc(Cl)cc1,38.3
7,COc1cccc(NC(=O)c2cc(=O)c3ccccc3o2)c1,1.9
8,O=C(O)/C=C/c1ccc(S(=O)(=O)NCc2cccnc2)cc1,> 47.8
9,COc1ccc(C(=O)OC(C)CN2CCOCC2)cc1.Cl (stereo not drawn),> 47.4
10,O=C(COC(=O)c1ccccc1OCc1ccccc1Cl)NCC1CCCO1 (stereo not drawn),> 60.6
11,Cc1cc(C)c(S(=O)(=O)N2CCCc3ccccc32)c(C)c1,1.8
12,CN(O)/C=N/C(=S)Nc1ccc(Cl)cc1Cl,38.4
13,O=C(N/C(=C/c1ccco1)C(=O)N1CCOCC1)c1cccs1,> 49.9
14,Cc1ccc(NC(=S)Nc2ccc3[nH]c(=O)[nH]c3c2)cc1,44
15,COc1ccc(/C=N/NC(=O)c2ccc3nc[nH]c3c2)cc1,> 44.1
16,CCCCN(C)C(=O)c1cc2cc([N+](=O)[O-])cc(OC)c2oc1=O,> 50.1
17,COc1ccc(Cc2nnc(NCCO)[nH]c2=O)cc1,> 41.4
18,COc1ccc(NC(=O)c2cc(C)cc(C)c2)cc1[N+](=O)[O-],< 0.3
19,Cn1c(N)c(C(=O)COC(=O)Cc2ccccc2F)c(=O)n(C)c1=O,24.2
20,O=C(O)CC1(CC(=O)Nc2ccccc2Br)CCCC1,> 51
21,COc1cccc(/C=C2\SC(=S)N(c3cccnc3)C2=O)c1OC,< 0.4
22,C=CCn1c(O)c(C(C)=Nc2ccc(C(=O)O)cc2)c(=O)[nH]c1=O,> 49.4
23,CC1CCCC(NC(=S)NC(=O)c2ccco2)C1C (stereo not drawn),5.4
24,O=C(Nc1cc(S(=O)(=O)N2CCCC2)ccc1Cl)c1cc(F)c(F)c(F)c1F,17.7

row,SMILES,solubility kinetic [µg/mL]
1,CSCCNCc1c(C(=O)N2CCOCC2)nc2c(C)cccn12,46.1
2,CCC(C)CCCCNC1=NCCS1 (stereo not drawn),> 32.2
3,CN1C(=O)CN=C(c2ccc(Cl)cc2)c2cc(Cl)ccc21,> 47.9
4,O=C(Nc1ccccc1Cl)Nc1ccccc1Cl,< 0.3
5,Cc1cccc(C(=O)Nc2cccc(C(=O)Nc3cc(C)ccn3)c2)c1,0.9
6,CCOC(=O)/C(C#N)=C/Nc1cc(F)ccc1C,3.2
7,CCc1ccc(N2C(=O)CN(Cc3cccs3)C2=S)cc1,< 0.3
8,O=c1c([N+](=O)[O-])c(N2CCCC2)c2ccccc2n1-c1ccccc1,46.7
9,COC(=O)c1cn(C(=O)c2cc(Cl)ccc2Cl)c2ccccc12,< 0.7
10,O=C(COC(=O)c1ccccc1)NC12CC3CC(CC(C3)C1)C2,9.2
11,Cc1ccc(C(=O)OC(C)CN2CCOCC2)cc1.Cl (stereo not drawn),38.9
12,O=C(c1ccc(F)cc1)C1CCN(C(=O)c2c(F)cccc2F)CC1,> 52.1
13,O=C(CN1CCCCC1)Nc1ccccc1C(=O)NC1CC1,> 45.2
14,O=S(=O)(Nc1ccccc1Cl)c1ccc(-c2ccccn2)s1,35.8
15,CCC(Oc1ccccc1)C(=O)NC1CCCCCC1 (stereo not drawn),28.3
16,Cc1cc(C)cc(C(=O)OCC(=O)NCc2ccco2)c1,> 43.1
17,CC(=O)c1c(C)[nH]c(=S)c(C#N)c1-c1ccc(Cl)cc1,> 45.4
18,CCN(CC(=O)Nc1c(F)cccc1F)C(=O)Cc1c[nH]c2ccccc12,> 55.7
19,COC(=O)c1ccccc1NC(=O)c1onc(C)c1Cl,< 0.3
20,CCOC(=O)Oc1ccc(/C=C2\N=C(C)OC2=O)cc1,35.9
21,COc1ccc(NS(=O)(=O)c2ccc3[nH]c(=O)[nH]c3c2)cc1,12.7
22,CNc1ccc(C(=O)c2ccccc2C(=O)O)cc1[N+](=O)[O-],> 45
23,COc1ccc(NC(=O)c2ccc3c(c2)OCO3)cc1S(=O)(=O)N1CCOCC1,14.7
24,Cc1ccc(S(=O)(=O)N[C@H](C(=O)OCC(=O)NC(=O)NCc2ccco2)C(C)C)cc1,> 67.7

row,SMILES,solubility kinetic [µg/mL]
1,COc1ccccc1S(=O)(=O)c1c(C)cc(C)[nH]c1=O,> 44
2,CN(C)C=NC(=O)c1[nH]c2ccc(Cl)cc2c1-c1ccccc1,15.2
3,O=C(CCNC(=O)c1ccc(Cl)cc1)Nc1nc2ccccc2[nH]1,2.3
4,COc1cc2c(cc1OC)/C(=C/C(=O)c1ccc(F)cc1)NCC2,25.7
5,CC(C)c1ncc(C(O)c2ccccc2)n1C (stereo not drawn),> 34.5
6,O=C(CN1CCCC1)Nc1ccccc1Sc1ccc(Cl)cc1,8.6
7,COc1cc(/C=C/C(=O)OCC(=O)NCc2ccc(F)cc2)ccc1O,> 53.9
8,O=C(Nc1ccc(S(=O)(=O)Nc2ncccn2)cc1)C(F)(F)F,> 51.9
9,O=c1[nH]c2cccnc2n1-c1cccc([N+](=O)[O-])c1,17
10,Cc1[nH]c(=O)[nH]c(=S)c1C(=O)Nc1ccc(Cl)c(Cl)c1,36.9
11,COc1ccc(NS(=O)(=O)c2cccc3ccccc23)cc1,22.4
12,O=C(O)C1CCCCC1C(=O)Nc1ccc2c(c1)OCO2 (stereo not drawn),> 43.7
13,Cc1ccc(-n2c(-c3ccc(Cl)cc3)c[n+]3c2CCC3)cc1.[Br-],> 58.5
14,OC[C@H]1O[C@@H](n2cnc3c(Nc4ccccc4)ncnc32)[C@H](O)[C@@H]1O,> 51.5
15,CCOC(=O)/C=C/C(=O)Nc1ccc(Oc2ccccc2)cc1,3.8
16,COc1ccccc1C(=O)CN1C(=O)NC2(CCCCCC2)C1=O,12.9
17,O=c1c2ccccc2ncn1-c1cccc(Br)c1,5.5
18,CC(NC(=O)CSc1ccccc1)c1ccccc1 (stereo not drawn),37.1
19,CCCCNc1ccc2c3c(cccc13)C(=O)N(CCCC)C2=O,2.1
20,O=C(CN1C(=O)NC2(CCCCCC2)C1=O)Nc1ccccc1[N+](=O)[O-],7.3
21,CC(=O)NC(=S)Nc1ccccc1F,> 31.8
22,Cc1ccc(/C=N/NC(=O)c2cccnc2)s1,> 36.8

# From PubChem BioAssay AID1996
